Results from publication PMC4472440, “Structure-Dependent Immune Modulatory Activity of Protegrin-1 Analogs” (Antibiotics, 2014).
Where no end group is shown, it is not given here.

Assays:
[1] = system: meningococcal capsular polysaccharide (CPS) polymers (TLR2 and TLR4 ligand); experiment: Inhibition of meningococcal CPS polymer activity in macrophages (Table 1); format: cell-based, Neisseria meningitidis; details: peptide 2 µg/mL preincubated with meningococcal CPS polymers 30 min at 37 °C, macrophages stimulated overnight; read-out behind the % not stated in Table 1
Protocol: (§1) Human THP-1 (monocyte-like cells) and murine RAW264 macrophages were stimulated with TLR ligands with or without preincubation with PG-1 and its analogs (Table 1). Purified meningococcal CPS samples were freshly dissolved in pyrogen-free sterile H2O at 1 mg/mL stock concentration and vortexed for 2 min. Working CPS concentrations (ranging from 100 µg/mL to 1 µg/mL) were made in duplicate wells using sterile PBS by serial fold dilutions in the 96-well tissue culture plates (Becton Dickinson, Franklin Lakes, NJ, USA) at 50 µL final volumes. PG-1 analogs (2 µg/mL) or PBS equivalent volumes were added to designated wells and preincubated for 30 min at 37 °C. Freshly grown THP-1 cells and murine macrophages, each adjusted to 10^6 cell/mL and 250 µL aliquots, were dispensed into each well at a final cell density of 250 × 10^3 in the designated 96-well plates. The plates were incubated overnight at 37 °C with 5% CO2 and humidity. Supernatants from stimulated cells were harvested and stored at −20 °C until use.
(§2) The cytokines TNFα and IL-1β, released from THP-1 cells, were quantified by DuoSet ELISA (R&D Systems), as previously described. […]
(§3) Freshly grown adherent RAW264 macrophages were harvested, washed and re-suspended in Dulbecco’s complete media, counted and adjusted to 10^6 cell/mL. […] Nitric oxide release was quantified using the Greiss chemical method, as previously described.

[2] = system: meningococcal LOS (TLR4 ligand); experiment: Inhibition of meningococcal LOS activity in macrophages (Table 1); format: cell-based, Neisseria meningitidis; details: peptide 2 µg/mL preincubated with meningococcal LOS 30 min at 37 °C, macrophages stimulated overnight; read-out behind the % not stated in Table 1
Protocol: as §1, §2, §3

[3] = system: RAW264 macrophages induced with meningococcal LOS; experiment: Nitric oxide release from RAW264 macrophages induced with meningococcal LOS, Greiss method; format: cell-based, murine; details: RAW264, LOS doses preincubated with 2 µg/mL peptide 30 min at 37 °C, overnight, Figure 6, result in words
Protocol: Figure 6 PG-1 analogs neutralized meningococcal LOS bioactivity and inhibited nitric oxide release. Nitric oxide was released from murine RAW264 macrophages induced overnight with meningococcal LOS doses pre-incubated with or without 2 µg/mL of PG-1 or its analogs for 30 min at 37 °C. Nitric oxide release was measured by the Greiss method. Error bars represent ± SD from the mean of duplicate measurements. This experiment is representative of two independent experiments.
as §1, with “Freshly grown THP-1 cells and murine macrophages, each adjusted to 10^6 cell/mL and 250 µL aliquots, were dispensed into each well at a final cell density of 250 × 10^3 in the designated 96-well plates. The plates were incubated overnight at 37 °C with 5% CO2 and humidity. Supernatants from stimulated cells were harvested and stored at −20 °C until use.” left out
as §3

[4] = system: RAW264 macrophages induced with meningococcal CPS polymers; experiment: Nitric oxide release from RAW264 macrophages induced with meningococcal CPS polymers, Greiss method; format: cell-based, murine; details: RAW264, CPS doses preincubated with 2 µg/mL peptide 30 min at 37 °C, overnight, Figure 7, result in words
Protocol: Figure 7 PG-1 analogs neutralized meningococcal capsular polysaccharide (CPS) polymer activity and inhibited nitric oxide release. CPS polymers were purified from the endotoxin-deficient serogroup B meningococcal NMB-lpxA mutant designated CPS. Nitric oxide was released from murine RAW264 macrophages induced overnight with doses of meningococcal CPS polymers pre-incubated with or without 2 µg/mL of PG-1 or its analogs for 30 min at 37 °C. Nitric oxide release was measured by the Greiss method. Error bars represent ±SD from the mean of duplicate measurements. This experiment is representative of two independent experiments.
Human THP-1 (monocyte-like cells) and murine RAW264 macrophages were stimulated with TLR ligands with or without preincubation with PG-1 and its analogs (Table 1). Purified meningococcal CPS samples were freshly dissolved in pyrogen-free sterile H2O at 1 mg/mL stock concentration and vortexed for 2 min. […]
as §3

Row | Substance | CPS activity inhibition (%) [1] | LOS activity inhibition (%) [2] | Inhibition of nitric oxide release (neutralization of LOS) [3] | Inhibition of nitric oxide release (neutralization of CPS) [4]
1 | Protegrin-1 (RGGRLCYCRRRFCVCVGR; not fully specified; cysteine pairing not given here) [Compound 1, native porcine PG-1, 18-residue β-hairpin peptide with two disulfide bridges] | 99% | 99.9% | – | –
2 | Compound 8: linearized non-cysteine PG-1 analog with alanine replacements (RGGRLAYARRRFAVAVGR-NH2) | 23% | 33% | failed to inhibit | failed to inhibit
